Patent publication US7638509B2, “Diene compounds and formulations” (priority 2003, dated 2009)

Columns and labels:
mutant AR = target: T1, mutant AR (Homo sapiens, UniProt P10275, T878A); assay: AR transcription, MMTV-Luc reporter in LNCaP cells; assay type: cell-based; conditions: MMTV-Luc
T1 construct: LNCaP without transfection; endogenous in cells; host or cells: LNCaP
T1 sequence (P10275 1-920 T878A): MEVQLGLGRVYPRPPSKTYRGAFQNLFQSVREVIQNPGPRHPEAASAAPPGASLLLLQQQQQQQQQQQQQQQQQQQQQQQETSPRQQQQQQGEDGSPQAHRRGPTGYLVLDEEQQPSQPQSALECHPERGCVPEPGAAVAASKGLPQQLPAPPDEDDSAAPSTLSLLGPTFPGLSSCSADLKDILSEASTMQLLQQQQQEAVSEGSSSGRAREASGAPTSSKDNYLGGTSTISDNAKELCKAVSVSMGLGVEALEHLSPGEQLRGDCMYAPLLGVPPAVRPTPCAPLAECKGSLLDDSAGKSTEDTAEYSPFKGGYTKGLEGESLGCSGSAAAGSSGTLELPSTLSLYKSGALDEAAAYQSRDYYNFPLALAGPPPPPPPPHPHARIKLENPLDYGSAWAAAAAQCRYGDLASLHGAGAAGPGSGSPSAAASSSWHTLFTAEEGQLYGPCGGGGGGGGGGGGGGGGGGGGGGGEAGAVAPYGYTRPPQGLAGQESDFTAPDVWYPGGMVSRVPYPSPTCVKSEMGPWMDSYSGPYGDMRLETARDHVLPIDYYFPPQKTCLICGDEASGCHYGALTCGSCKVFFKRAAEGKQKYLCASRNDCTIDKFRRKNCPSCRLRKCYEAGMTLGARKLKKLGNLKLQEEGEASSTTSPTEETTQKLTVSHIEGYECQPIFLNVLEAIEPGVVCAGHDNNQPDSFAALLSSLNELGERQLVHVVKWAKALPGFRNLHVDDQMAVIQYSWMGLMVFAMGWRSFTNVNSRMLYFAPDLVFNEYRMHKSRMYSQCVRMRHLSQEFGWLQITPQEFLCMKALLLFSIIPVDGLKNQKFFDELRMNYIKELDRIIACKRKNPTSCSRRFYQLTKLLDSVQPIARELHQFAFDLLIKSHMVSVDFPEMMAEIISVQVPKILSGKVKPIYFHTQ
Description: Cell Culture, Transfection, and Reporter Gene Assay. The human prostate cancer cell lines, LNCaP, PC-3, and DU145, and non-prostate cancer cell line COS-1 were maintained in RPMI or Dulbecco's modified Eagle's medium (DMEM) (Life Technologies) supplemented with 10% fetal bovine serum (FBS). […] Briefly, cells seeded to reach a density of 50-60% confluence in 12 well tissue culture plates were transfected with 1.5 μg of DNA according to “SuperFect transfection” instructions (Qiagen). After 2-3 h incubation, cells were treated with medium supplemented with charcoal-stripped FBS containing either ethanol or ligands for 24 h. The cells were then harvested and whole cell extracts were used for Luc assay. The Luc activity was determined using a Dual-Luciferase Reporter Assay System (Promega) and luminometer.
The pSG5-AR was co-transfected in COS-1 cells. […] Values were obtained from the mean±SD of at least three determinations. DU145 cells were transfected with the pSG5-AR and MMTV-Luc in the presence or absence of pSG5-ARA70. […] Values were obtained for the mean±SD of at least three determinations.

LNCaP cells = assay: LNCaP cell growth, cell count by hemocytometer; assay type: cell-based, human
Description: The mean±SD of three separate experiments was determined. […] Total cell number was counted by hemocytometer. The mean of at least three determinations was determined.

AR [1] = target: T2, AR (Homo sapiens, UniProt P10275, T878A); assay: Competitive [3H]-R1881 ligand binding assay, LNCaP whole cell extracts; conditions: 1 nM [3H]-R1881, unlabeled ligand 1-10,000 nM, relative to DHT
T2 construct: LNCaP without transfection; endogenous in cells; host or cells: LNCaP
T2 sequence (P10275 1-920 T878A): T1 sequence (P10275 1-920 T878A)
Description: Ligand Binding Assay. Whole cell extracts from COS-1 with transient transfection of pSG5-AR, or LNCaP without transfection, were incubated for 2 h at 37° C. with 1 nM [^3H]-synthetic androgen methyltrienolone (R1881) in the presence and absence of increasing concentrations (1-10,000 nM) of unlabeled ligands. Then, hydroxyapatite (Bio-Rad) was added and stirred for 15 min at 4° C. After centrifugation and washing, radioactivity was determined by scintillation counting.
Clinically available antiandrogens have an affinity for the AR, allowing a competition with androgens for binding. To determine whether ADEK has this common feature of AR antagonists, the competitive androgen binding assay was performed.

AR [2] = target: T2, AR; assay: Adiol-induced AR transcription, MMTV-Luc in LNCaP cells; assay type: cell-based; conditions: 2.5 nM Adiol, compound at 1 μM
Description: Cell Culture, Transfection, and Reporter Gene Assay. The human prostate cancer cell lines, LNCaP, PC-3, and DU145, and non-prostate cancer cell line COS-1 were maintained in RPMI or Dulbecco's modified Eagle's medium (DMEM) (Life Technologies) supplemented with 10% fetal bovine serum (FBS). Transfections and luciferase (Luc) assays were performed as previously described (Miyamoto, H., Yeh, S., Wilding, G. & Chang, C. (1998) Proc. Natl. Acad. Sci. USA 95, 7379-7384; Miyamoto, H., Rahman, M., Takatera, H., Kang, H.-Y., Yeh, S., Chang, H.-C., Nishimura, K., Fujimoto, N. & Chang, C. (2002) J. Biol. Chem. 277, 4609-4617). Briefly, cells seeded to reach a density of 50-60% confluence in 12 well tissue culture plates were transfected with 1.5 μg of DNA according to “SuperFect transfection” instructions (Qiagen). After 2-3 h incubation, cells were treated with medium supplemented with charcoal-stripped FBS containing either ethanol or ligands for 24 h. The cells were then harvested and whole cell extracts were used for Luc assay. The Luc activity was determined using a Dual-Luciferase Reporter Assay System (Promega) and luminometer.
Effect of ADEK on AR Transcription. […] (set as 100%). Values were obtained from the mean±SD of at least three determinations.

## CC(=O)O[C@H]1C=C[C@@]2(C)C(=CC[C@@H]3[C@@H]2CC[C@@]2(C)[C@H]3CCC23OCCO3)C1 [ADEK, 3β-acetoxy-17,17-ethylenedioxyandrosta-1,5-diene]
Mutant AR; 1 nM DHT, dose-dependent
  DHT-induced mutant AR transcription suppressed to (DHT = 100%): 17%
Mutant AR; HF at 10 μM
  agonist / androgenic activity on mutant AR transcription (in words): lower than that of casodex
LNCaP cells; 1 nM DHT, 1 μM compound in presence of DHT
  effect on LNCaP cell growth, DHT alone or compound with DHT (in words): antagonized this DHT effect
LNCaP cells; 1 μM compound, no DHT
  effect on LNCaP cell growth in the absence of androgen (in words): marginally increased growth
AR [1]
  RBA in LNCaP: 11.1
AR [2]
  repression of Adiol-induced AR transcription: ~58%
